# Test results published in ChEMBL document CHEMBL3351288, “Flavonoids and arylbenzofurans from the rhizomes and roots of Sophora tonkinensis with IL-6 production inhibitory activity” (Bioorg Med Chem Lett, 2014).
# What was measured:
# [1] = Cytotoxicity against human HMC1 cells assessed as cell viability; assay type: cell-based
# HMC1 = assay: Inhibition of A23187-induced IL-6 production in human HMC1 cells incubated for 30 mins prior to A23187 challenge measured after 24 hrs by ELISA; assay type: functional, cell-based
IC50 (HMC1),SMILES,IC50 [1]
4.02 µM,COc1ccc(-c2cc3ccc(O)cc3o2)c(O)c1,> 20 µM
0.73 µM,CC(C)=CCc1cc([C@@H]2CC(=O)c3ccc(O)c(CC=C(C)C)c3O2)ccc1O [GLABROL],> 20 µM
3.01 µM,Oc1ccc2c(c1)OC[C@H]1c3cc4c(cc3O[C@@H]21)OCO4 [MAACKIAIN],> 20 µM
1.62 µM,CC(C)=CCc1cc(C2CC(=O)c3ccc(O)c(CC=C(C)C)c3O2)c(O)cc1O (stereo not drawn),> 20 µM
